Data: patent publication US12403114B2, “Cannabinoid acid ester compositions and uses thereof” (EPM (IP), INC., priority 2019, dated 2025)

Tests used:
[1] = biological target: T1, glucose transporter 2 (GLUT2) (Homo sapiens, UniProt P11168); assay: 2-NBDG glucose uptake in transfected HEK293t cells; type: cell-based; conditions: 50-0.1 μM tested
T1 construct: expressed in transfected cells; host or cells: HEK293t
T1 sequence (P11168 1-524): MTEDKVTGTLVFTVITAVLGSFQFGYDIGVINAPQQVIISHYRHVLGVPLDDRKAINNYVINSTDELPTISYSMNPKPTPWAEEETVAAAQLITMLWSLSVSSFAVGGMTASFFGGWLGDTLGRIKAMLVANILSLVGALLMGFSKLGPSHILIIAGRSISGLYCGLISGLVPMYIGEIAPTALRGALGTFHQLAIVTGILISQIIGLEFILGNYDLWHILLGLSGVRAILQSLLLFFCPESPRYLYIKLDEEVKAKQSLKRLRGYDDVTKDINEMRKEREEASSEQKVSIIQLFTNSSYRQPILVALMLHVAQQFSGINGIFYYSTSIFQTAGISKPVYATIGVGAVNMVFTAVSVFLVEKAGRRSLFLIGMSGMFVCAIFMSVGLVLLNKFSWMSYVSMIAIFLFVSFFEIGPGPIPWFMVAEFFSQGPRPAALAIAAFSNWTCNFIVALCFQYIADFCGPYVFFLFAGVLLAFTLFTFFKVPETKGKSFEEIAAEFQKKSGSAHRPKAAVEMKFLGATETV
Procedure: In vitro assays for measuring glucose uptake were designed to assess whether EPM-301 and EPM-302 compounds are capable of inhibiting or increasing glucose uptake via glucose transporters (GLUTs).
Transfected HEK293t cells, which express the glucose transporter 2 (GLUT2), were cultured in a 96 well plate and maintained at 37° C. in 5% CO2 in DMEM medium supplemented with 10% FCS, 2 mM 1-glutamine, 1 mM sodium pyruvate, 100 U/mL penicillin, and […] streptomycin for 24 h. The medium was then washed with a choline chloride Na^+-free buffer (CCB), in which only GLUTs (and not the sodium/glucose transporters [SGLTs]) were active. The wells were then added with CCB/CCB+2-NBDG (a fluorescent derivative of glucose). Compounds were tested in a range of concentrations for their ability to inhibit/increase 2-NBDG uptake into the cells. After 1.5 h incubation, cells were washed with CCB and incubated with 1 μg/μL of Hoechst for 15 mins at 37° C. and protected from light. Fluorescence was measured by the Cytation-3 plate reader at ex:485 nm/em:528 nm and ex:350 nm/em:461 nm for 2-NBDG Hoechst, respectively. Results of the 2-NBDG levels were normalized to Hoechst levels of each well, and presented as a change in the uptake of 2-NBDG in comparison with Vehicle-treated group.
Vehicle solution (choline chloride buffer), EPM-301 (50-0.1 μM), and EPM-302 (50-0.1 μM) were used for the experiments.
Values are expressed as mean±SEM. Unpaired two-tailed student's t-test was used to determine the differences between the groups. Significance was set at p<0.05. *versus vehicle; #versus control.

[2] = system: weight gain in rats with an adipogenic diet; assay: Rat model of diet induced obesity (Teklad TD95217 adipogenic diet), weight gain; type: in vivo; conditions: 150 uL of 3.5 mg/ml i.p., each animal its own control (FIG. 33)
Procedure: The study was designed as a N-of-1 study, where each animal served as its own control. The advantage of this model is the elimination of the need for a control group and reduction of […] variation. The study was performed in two phases: a short-term study with one week exposure to EPM-301 and a long-term study with 8 weeks exposure to EPM-301 (injected daily). In the long-term study, a control group was used including animals fed the adipogenic diet.
EPM-301 was dissolved in 1:1:18 EtOH:cremophor:seline solution to final concentration of 3.5 mg/ml.
In the short-term experiment, all rats were injected i.p. 150 uL in the first day, and after a 3-day break were then injected i.p. every day for 4 days. In the long-term experiment i.p. injections of 150 uL were carried out daily for 8 weeks. Weight was measured at weeks 0, 1, 3, and 9 after injections.
The rats were weighed on a digital weight weekly in the short-term study for 3 weeks. The rats were weighed on weeks 0, 1, 3, and 9 in the long-term study.
Rats were allowed to acclimatize for 1 week, and then their weights were assessed using a digital weighing machine. Animals are fed an adipogenic diet for two weeks before starting injections.
The weights of the animals were compared at each time point and the change over time calculated. ANOVA was used to determine whether there was a significant change. […]

## C=C(C)[C@@H]1CCC(C)=CC1c1c(O)cc(CCCCC)c(C(=O)OC)c1O (stereo partly drawn) [EPM-301, cannabidiolic acid methyl ester]
[1]
  concentration at which the effect on glucose transport was observed: 50 µM
[1]; 1.5 h incubation, versus vehicle (FIG. 36A, 36B)
  glucose uptake (2-NBDG) in HEK293 cells: significantly reduce
[2]
  weight gain, short-term study: halting
